Reference: ChEMBL document CHEMBL4359868, “New anthranilic acid-incorporating N-benzenesulfonamidophthalimides as potent inhibitors of carbonic anhydrases I, II, IX, and XII: Synthesis, in vitro testing, and in silico assessment” (Eur J Med Chem, 2019)

Assays:
Carbonic anhydrase 2 = Carbonic anhydrase 2 (Homo sapiens, UniProt P00918); experiment: Inhibition of recombinant human CA2 preincubated for 15 mins by phenol red dye-based stopped-flow CO2 hydration assay
Carbonic anhydrase 9 [1] = target: T1, Carbonic anhydrase 9 (Homo sapiens, UniProt Q16790)
Description: Inhibition of recombinant human CA9 preincubated for 15 mins by phenol red dye-based stopped-flow CO2 hydration assay

Carbonic anhydrase 12 = Carbonic anhydrase 12 (Homo sapiens, UniProt O43570)
Description: Inhibition of recombinant human CA12 preincubated for 15 mins by phenol red dye-based stopped-flow CO2 hydration assay

Carbonic anhydrase 1 = Carbonic anhydrase 1 (Homo sapiens, UniProt P00915); experiment: Inhibition of recombinant human CA1 preincubated for 15 mins by phenol red dye-based stopped-flow CO2 hydration assay
Carbonic anhydrase 9 [2] = target: T1, Carbonic anhydrase 9; experiment: Inhibition of recombinant human CA9 at 10^-4 M preincubated for 15 mins by phenol red dye-based stopped-flow CO2 hydration assay
Carbonic anhydrase 9 [3] = target: T1, Carbonic anhydrase 9; settings: at 0.1 µM
Description: Inhibition of recombinant human CA9 at 10^-7 M preincubated for 15 mins by phenol red dye-based stopped-flow CO2 hydration assay

Carbonic anhydrase 9 [4] = target: T1, Carbonic anhydrase 9; settings: at 1 µM
Description: Inhibition of recombinant human CA9 at 10^-6 M preincubated for 15 mins by phenol red dye-based stopped-flow CO2 hydration assay

Carbonic anhydrase 9 [5] = target: T1, Carbonic anhydrase 9; settings: 10^-5 M
Description: Inhibition of recombinant human CA9 at 10^-5 M preincubated for 15 mins by phenol red dye-based stopped-flow CO2 hydration assay

Carbonic anhydrase 9 [6] = target: T1, Carbonic anhydrase 9; settings: at 0.01 µM
Description: Inhibition of recombinant human CA9 at 10^-8 M preincubated for 15 mins by phenol red dye-based stopped-flow CO2 hydration assay

Sequence of Carbonic anhydrase 1 (P00915 whole entry): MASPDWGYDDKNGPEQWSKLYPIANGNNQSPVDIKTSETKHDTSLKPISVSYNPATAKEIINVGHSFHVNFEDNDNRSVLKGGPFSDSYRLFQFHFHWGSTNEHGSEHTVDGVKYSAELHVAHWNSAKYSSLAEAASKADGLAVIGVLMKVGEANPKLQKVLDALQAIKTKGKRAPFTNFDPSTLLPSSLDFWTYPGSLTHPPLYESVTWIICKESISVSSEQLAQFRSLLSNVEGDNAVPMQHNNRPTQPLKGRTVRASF
Sequence of Carbonic anhydrase 12 (O43570 whole entry): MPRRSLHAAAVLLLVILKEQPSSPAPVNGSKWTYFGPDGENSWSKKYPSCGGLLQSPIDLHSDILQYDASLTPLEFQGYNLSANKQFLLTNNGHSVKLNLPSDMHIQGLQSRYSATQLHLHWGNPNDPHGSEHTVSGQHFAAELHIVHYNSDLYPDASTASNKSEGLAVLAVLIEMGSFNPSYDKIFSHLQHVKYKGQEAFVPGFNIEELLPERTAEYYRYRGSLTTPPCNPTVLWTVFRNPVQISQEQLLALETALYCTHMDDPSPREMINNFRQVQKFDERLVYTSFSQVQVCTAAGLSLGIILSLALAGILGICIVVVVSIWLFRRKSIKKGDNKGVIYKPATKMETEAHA

Compound | Ki (Carbonic anhydrase 9 [1]) | Ki (Carbonic anhydrase 12) | Ki (Carbonic anhydrase 1) | other results
COc1ccc(NC(=O)c2ccc3c(c2)C(=O)N(c2ccccc2)C3=O)c(C(=O)O)c1 | 8.2 µM | > 100 µM | – | Ki (Carbonic anhydrase 2): > 100 µM
COc1ccc(NC(=O)c2ccc3c(c2)C(=O)OC3=O)c(C(=O)O)c1 | > 0.1 µM | > 0.1 µM | > 0.1 µM | –
COc1ccc(NC(=O)c2ccc3c(c2)C(=O)N(CCc2ccc(S(N)(=O)=O)cc2)C3=O)c(C(=O)O)c1 | 0.0082 µM | – | – | –
O=C(Nc1ccc(Cl)cc1C(=O)O)c1ccc2c(c1)C(=O)OC2=O | 0.052 µM | – | – | –
COc1ccc(NC(=O)c2ccc3c(c2)C(=O)N(c2ccc(C(=O)O)cc2)C3=O)c(C(=O)O)c1 | 0.72 µM | – | – | –
CCOC(=O)c1ccc(N2C(=O)c3ccc(C(=O)Nc4ccc(Cl)cc4C(=O)O)cc3C2=O)cc1 | 0.53 µM | – | – | –
COc1ccc(NC(=O)c2ccc3c(c2)C(=O)N(Cc2ccccc2)C3=O)c(C(=O)O)c1 | 41.9 µM | > 100 µM | > 100 µM | –
O=C(Nc1ccc(Cl)cc1C(=O)O)c1ccc2c(c1)C(=O)N(c1ccccc1)C2=O | 5.5 µM | > 100 µM | > 100 µM | –
O=C(O)c1ccc(N2C(=O)c3ccc(C(=O)Nc4ccc(Cl)cc4C(=O)O)cc3C2=O)cc1 | 0.46 µM | – | – | inhibition (Carbonic anhydrase 9 [2]): 92%; inhibition (Carbonic anhydrase 9 [3]): 17%; inhibition (Carbonic anhydrase 9 [4]): 70%; inhibition (Carbonic anhydrase 9 [5]): 85%
COc1ccc(NC(=O)c2ccc3c(c2)C(=O)N(Cc2ccc(S(N)(=O)=O)cc2)C3=O)c(C(=O)O)c1 | 0.036 µM | – | – | –
NS(=O)(=O)c1ccc(CN2C(=O)c3ccc(C(=O)Nc4ccc(Cl)cc4C(=O)O)cc3C2=O)cc1 | 0.0216 µM | – | – | –
O=C(Nc1ccc(Cl)cc1C(=O)O)c1ccc2c(c1)C(=O)N(Cc1ccccc1)C2=O | 47.3 µM | > 100 µM | > 100 µM | Ki (Carbonic anhydrase 2): > 100 µM
NS(=O)(=O)c1ccc(CCN2C(=O)c3ccc(C(=O)Nc4ccc(Cl)cc4C(=O)O)cc3C2=O)cc1 | 0.0073 µM | – | – | –
COc1ccc(NC(=O)c2ccc3c(c2)C(=O)N(c2ccc(S(N)(=O)=O)cc2)C3=O)c(C(=O)O)c1 | 0.0088 µM | – | – | –
O=C(Nc1ccc(Cl)cc1C(=O)O)c1ccc2c(c1)C(=O)N(CCc1ccccc1)C2=O | 39.6 µM | > 100 µM | > 100 µM | –
COc1ccc(NC(=O)c2ccc3c(c2)C(=O)N(CCc2ccccc2)C3=O)c(C(=O)O)c1 | 31 µM | > 100 µM | > 100 µM | Ki (Carbonic anhydrase 2): > 100 µM
CCOC(=O)c1ccc(N2C(=O)c3ccc(C(=O)Nc4ccc(OC)cc4C(=O)O)cc3C2=O)cc1 | 0.96 µM | – | – | –
NS(=O)(=O)c1ccc(N2C(=O)c3ccc(C(=O)Nc4ccc(Cl)cc4C(=O)O)cc3C2=O)cc1 | 0.0039 µM | – | – | inhibition (Carbonic anhydrase 9 [6]): 63%; inhibition (Carbonic anhydrase 9 [3]): 84%; inhibition (Carbonic anhydrase 9 [4]): 96%
